Assays:
U87MG tumors = assay: 18F-DPA-714 PET imaging of U87MG xenograft tumor model; type: in vivo, mouse; details: PET 1 h p.i., tumor volume 100-300 mm^3, athymic nude mice, mean ± SD
INS-1 tumors = assay: 18F-DPA-714 PET imaging of INS-1 xenograft tumor model; type: in vivo, mouse; details: PET 1 h p.i., tumor volume 100-300 mm^3, athymic nude mice, mean ± SD
RAW264.7 cells = assay: RAW 264.7 macrophage cell efflux of 18F-DPA-714; type: cell-based, mouse; details: 2 h incubation with tracer
4T1 tumors = assay: 18F-DPA-714 PET imaging of 4T1 xenograft tumor model; type: in vivo, mouse; details: PET 1 h p.i., tumor volume 100-300 mm^3, FVB mice, mean ± SD
HT29 tumors = assay: 18F-DPA-714 PET imaging of HT29 xenograft tumor model; type: in vivo, mouse; details: PET 1 h p.i., tumor volume 100-300 mm^3, athymic nude mice, mean ± SD
A549 tumors = assay: 18F-DPA-714 PET imaging of A549 xenograft tumor model; type: in vivo, mouse; details: PET 1 h p.i., tumor volume 100-300 mm^3, athymic nude mice, mean ± SD

`CCN(CC)C(=O)Cc1c(-c2ccc(OCC[18F])cc2)nn2c(C)cc(C)nc12` [18F-DPA-714] was tested. Which “U87MG tumor uptake of 18F-DPA-714” value (U87MG tumors) did it give?
The value was 1.69 ± 0.67 %ID/g.

And the “INS-1 tumor uptake of 18F-DPA-714” value (INS-1 tumors)?
The value was 1.13 ± 0.33 %ID/g.

And the “Tracer retention after 1 h efflux as share of uptake” value (RAW264.7 cells)?
The value was “around 50%”.

What about the “4T1 tumor uptake of 18F-DPA-714” value (4T1 tumors) of the same compound?
The value was 1.22 ± 0.55 %ID/g.

What about the “HT29 tumor uptake of 18F-DPA-714” value (HT29 tumors) of the same compound?
Its value is 0.91 ± 0.08 %ID/g.

What about the “A549 tumor uptake of 18F-DPA-714” value (A549 tumors) of the same compound?
The value was 0.46 ± 0.28 %ID/g.

From publication PMC3966057 (Theranostics, 2014)
